{"source": "patent US20040110718A1", "about": "“Anti-HCV nucleoside derivatives” (priority 2000, published 2004)", "key": {"[1]": {"tested_on": "HCV replicon RNA replication", "assay": "HCV replicon assay (quantification of replicon RNA, Northern blot / Taqman kinetic PCR)", "type": "cell-based", "conditions": "Hepatitis C virus, Huh-7, 72 h", "protocol": "Assay Method: The activity of the compounds was assayed using an adaptation of the method reported by Lohmann et al [V. Lohmann et al., Science, 1999, 285, 110-113].\nThe HCV replicon-containing cell line is used for the identification of small molecules that are able to inhibit the replication of the replicon RNA. Since the replicon RNA replication mimics the replication of the HCV RNA in infected hepatocytes, it is believed that those small molecules that have the above property are interesting for further development as anti-HCV drugs.\nThe inhibition of the HCV replicon RNA replication will lead to a decrease of the replicon RNA in the cell, which can be measured using a method that specifically quantifies this RNA.\nNorthern blot: One method for quantification of this RNA uses the standard Northern blot known to any person skilled in the art.\nKinetic PCR: A second assay for the quantification of replicon RNA is based on the amplification of the replicon RNA that remains in the cell, after incubation of the cells with a proper concentration of the small molecules. This method involves the reverse transcription of the replicon RNA to the corresponding complementary DNA (cDNA), followed by amplification of the cDNA using the Taqman Kinetic PCR technology (PE Biosystems). This consists of hybridisation of the cDNA with a complementary reporter oligonucleotide (probe), containing a combined fluorescent dye and a quencher dye. Amplification of the DNA sequence containing the hybridised reporter probe, using flanking oligonucleotide primers will lead to the separation of the fluorescent dye from the quencher dye. This will result in an increase of the fluorescence during each amplification cycle.\nThe neomycin phosphotransferase gene sequence that is present in the replicon RNA was chosen for amplification using specifically designed oligonucleotide primers. To control for (a) cell number that can vary depending on the toxicity or cytostatic effect of the small molecules, and (b) for errors during total RNA extraction, amplification of the host β-actin gene is used for normalisation.\nThe accumulation of the PCR products during the reaction is monitored directly by measuring the increase in fluorescence of the reporter dye. The amount of HCV replicon RNA (and β-actin RNA) originally present in the total RNA extracted from the cells is then expressed as a threshold cycle, e.g. the cycle at which there is a statistically significant increase in the fluorescence above the background.\nFor this procedure, HCV replicon-containing human hepatoma Huh7 cells (9-13) in growth medium (DMEM) containing 5% FCS are plated in a 96-well plate at 5×10^3 cells per well, and the plate incubated overnight. 24 hours later, different dilutions in 0.1 ml growth medium of chemical compounds were added to the wells, and the plate further incubated at 37° C. for three days. Total RNA coming from each well is extracted using the RNeasy™ procedure (Qiagen manufacturer instructions), and the total RNA is eluted in a final volume of 0.13 ml. Next, a 2 μl sample of the total RNA is used for convertion into cDNA using a reverse transcription (RT) step. A RT mastermix containing 1 μl 10× Taqman RT buffer, 2.2 μl 25 mM MgCl2 (5.5 mM final conc.), 2 μl dNTP mix (500 μM each), 0.5 μl random hexamer primers (2.5 μM), 0.2 μl RNase inhibitor (0.4 u/μl ), 0.25 μl RT (1.25 u/μl ), 1.85 μl H2O, was distributed in a 96-well plate and 2 μl total RNA was added to each well.\nThe RT reaction is performed by incubation of the plate 10 min at 25° C., 30 min at 48° C., 5 min at 95° C. and cooling to 4° C. The cDNA samples are then stored at −20° C. or directly used for the PCR reaction. […]"}, "[2]": {"tested_on": "HCV replicon RNA replication", "assay": "HCV replicon assay, Renilla luciferase reporter", "type": "cell-based", "conditions": "Hepatitis C virus, Huh-7, 72 h; Renilla luciferase HCV replicon cells (2209-23, Huh7), three days incubation; concentration reducing luciferase activity/replicon level by 50%"}, "[3]": {"conditions": "HCV replicon-containing human hepatoma Huh7 cells (9-13), three days incubation, concentration reducing replicon RNA levels by 50%, read-out: IC50"}}}
{"smiles": "OC[C@H]1O[C@@H](n2cnc3c(-c4ccccc4)ncnc32)[C@H](O)[C@@H]1O", "note": "[Example 182, 6-Phenyl-9-(β-D-ribofuranosyl)purine]", "values": [{"measurement": "IC50", "setting": "[1]; [3]", "value": 0.1, "unit": "µM"}, {"measurement": "melting point", "value": "224 to 225", "unit": "°C"}]}
{"smiles": "OC[C@H]1O[C@@H](n2cnc3c(-c4ccsc4)ncnc32)[C@H](O)[C@@H]1O", "note": "[Example 181, 9-(β-D-Ribofuranosyl)-6-(3-thienyl)purine]", "values": [{"measurement": "IC50", "setting": "[1]", "value": 0.05, "unit": "µM"}, {"measurement": "melting point", "value": "166 to 167 °C (dec.)"}]}
{"smiles": "CCCNc1ncnc2c1ncn2[C@@H]1O[C@H](CO)[C@@H](O)[C@H]1O", "note": "[Example 253, 6-propylamino-9-(β-D-ribofuranosyl)purine]", "values": [{"measurement": "IC50", "setting": "[2]", "value": 7, "unit": "µM"}]}
{"smiles": "Nc1ccn([C@@H]2C[C@H](CO)[C@@H](O)[C@H]2O)c(=O)n1", "note": "[Example 246, 4-amino-1(R)-(2(S),3(R)-dihydroxy-4(R)-hydroxymethyl-cyclopentyl)-1H-pyrimidin-2-one]", "values": [{"measurement": "IC50", "setting": "[2]", "value": 0.4, "unit": "µM"}]}
{"smiles": "Nc1ccn([C@@H]2O[C@H](CO)[C@H](F)[C@H]2O)c(=O)n1", "note": "[Example 249, 1-(3-deoxy-3-fluoro-β-D-xylofuranosyl)cytosine]", "values": [{"measurement": "IC50", "setting": "[2]", "value": 10.4, "unit": "µM"}]}
{"smiles": "CCNc1ncnc2c1ncn2[C@@H]1O[C@H](CO)[C@@H](O)[C@H]1O", "note": "[Example 252, 6-ethylamino-9-(β-D-ribofuranosyl)purine]", "values": [{"measurement": "IC50", "setting": "[2]", "value": 14, "unit": "µM"}]}
{"smiles": "Nc1ccn([C@@H]2O[C@H](CO)[C@H](O)[C@H]2O)c(=O)n1", "note": "[Example 247, 1-(β-D-xylofuranosyl)cytosine]", "values": [{"measurement": "IC50", "setting": "[2]", "value": 3.7, "unit": "µM"}]}
{"smiles": "C#CCNc1ncnc2c1ncn2[C@@H]1O[C@H](CO)[C@@H](O)[C@H]1O", "note": "[Example 81, 6-(2-Propynyl)amino-9-(β-D-ribofuranosyl)purine]", "values": [{"measurement": "IC50", "setting": "[1]; [3]", "value": 3.8, "unit": "µM"}]}
{"smiles": "Nc1ncnc2c1nc(Br)n2[C@@H]1O[C@H](CO)[C@@H](O)[C@H]1O", "note": "[Example 10, 8-Bromoadenosine]", "values": [{"measurement": "IC50", "setting": "[1]", "value": 3.6, "unit": "µM"}]}
